Assay results as given in patent US20260015436A1, “ANTIBODIES FOR CHELATED RADIONUCLIDES” (Hoffmann-La Roche Inc., priority 2018, published 2026).

Assays:
WSU-DLCL2 tumors = assay: Protocol 162: CD20-PRIT efficacy; type: in vivo, SCID mice; settings: multiple injections of 20 μCi (PRIT); result in words
Procedure: The aim of this study was to show proof-of-concept of the treatment regimen developed for CEA-PRIT directed against an alternative target: cluster of differentiation 20 (CD20). The therapeutic efficacy was evaluated after 3 cycles of CD20-PRIT in mice bearing subcutaneous WSU-DLCL2 tumors. Comparisons were also made with: 1-step CD20-RIT, using BsAbs that were pre-incubated with ^212Pb-DOTAM before injection; with rituximab, a type I monoclonal antibody directed against CD20 and a reference in treatment of CD20+ diseases; and with GA101, a type II monoclonal antibody also directed against CD20.
Animals were treated according to the experimental schedule illustrated in FIG. 59. Solid WSU-DLCL2 xenografts were established in SCID mice aged 8 weeks on study day 0 by subcutaneous injection of 1.5×10^5 cells into the right flank. […]
Mice in groups H, I, and L were sacrificed and necropsied for biodistribution purposes 24 hours after their first and only injection of ^212Pb-DOTAM or ^212Pb-DOTAM-BsAb; groups J and K were sacrificed and necropsied 24 hours after their second and third ^212Pb-DOTAM injection, respectively. […] Collected samples were weighed and then measured for radioactivity using a 2470 WIZARD^2 automatic gamma counter (PerkinElmer), and the percent injected dose per gram of tissue (% ID/g) subsequently calculated, including corrections for decay and background. […]

BxPC3 tumors = assay: Protocol 95: TCMC saturation, CA amount and ^212Pb activity on tumor-associated radioactivity; type: in vivo, mice; settings: no clearing agent
Text: In this study, nine different clearing agents based on dextran-500 were compared in terms of inhibition of ^212Pb-DOTAM association to tumors. More specifically, the experiment assessed the impact on tumor-associated radioactivity from i) TCMC saturation, ii) clearing agent-to-antibody ratio, and iii) production/purification method. In addition, the tumor uptake was compared after injection of 10 or 30 μCi of ^212Pb-DOTAM, without pretargeting or CA, to assess whether radioactivity saturation of the tumor was achieved already at the lower dose.
PRIT-0165 (100 μg per 100 μL) was administered i.v., followed three days later by dextran-500-based clearing reagents (10-170 μg per 100 μL) with varying TCMC substitution (10-100%). Groups J and K received PBS instead of clearing agent. Two hours later, mice were injected i.v. with 100 μL of the respective ^212Pb-DOTAM solutions (10 or 30 μCi).
Mice were sacrificed and necropsied 24 hours after injection of ^212Pb-DOTAM. Blood, bladder, spleen, kidneys, liver, lung, muscle, tail, and tumors were collected, weighed and measured for radioactivity content, and the % ID/g subsequently calculated.

## NC(=O)CN1CCN(CC(N)=O)CCN(CC(N)=O)CCN(CC(N)=O)CC1.[212Pb+2] [^212Pb-DOTAM]
WSU-DLCL2 tumors
  BW development: well tolerated
BxPC3 tumors; 10 μCi
  tumor accumulation (±SD, n=3): 72.38±10.83 % ID/g
BxPC3 tumors; 30 μCi
  tumor accumulation (±SD, n=3): 107.74±14.71 % ID/g
